Test results taken from paper PMC6369734, “Spy vs. spy: selecting the best reporter for ^19F NMR competition experiments” (Chemical Communications (Cambridge, England), 2019).

Molecular target: T1, VHL (VBC complex), Hyp site (Homo sapiens, UniProt P40337)
T1 construct: equimolar complex of pVHL54-213, eloB1-104 and; made in house; host or cells: E. coli
Assay: 19F NMR competition experiment, displacement of spy molecule 19
Type: binding
Details: 19 at 50 μM, VHL at 1.0 μM
Description: Lastly, the utility and scope of using spy molecule 19 to quantify binding of competitors across a wide range of affinities was evaluated (Fig. 5). Five compounds were titrated against 19 at 50 μM and VHL at 1.0 μM. In all cases the displacement of the spy molecule was concentration-dependent and the Ki (inhibition constant) values were derived from the respective IC50 using a competitive binding model.[12] The measured binding affinities compared remarkably well with the respective values obtained by SPR across 4-log units. The same experiment was attempted with spy molecules 6 and 11 under the same conditions, and in these cases, the assay could not differentiate the binders as efficiently (ESI, ^† Fig. S2–S4), since this would require higher protein concentration.
6. Competition experiments by 19F NMR
As full measurements of R2 would be very time consuming, the competition experiments were performed using a single 19F CPMG experiment (decoupled) per sample with a fixed CPMG delay. To determine the best CPMG delay for a given spy molecule and assay condition, the procedure described in Figure S5 was developed based on the transverse relaxation rate equations.[7] By knowing the relaxation rates of the spy molecule free in solution and in presence of protein, the CPMG delay where the difference between the NMR peaks is maximum is hereon referred as dmax. The dmax for all the conditions tested for each spy molecule can be found in section 8, together with the respective values of R2 and C2.
Method for selecting the best CPMG delay for competition experiments. With the transverse relaxation rates of the spy molecule free in solution (R2F, resulting in the blue plot) and bound to protein (R2B, resulting in the red plot), the difference between the two curves is described by I(t)D (cyan curve). To obtain dmax, the delay where the difference curve reaches its maximum, the first derivative of I(t)D was obtained and equalled to 0, subsequently isolating t (CPMG filter). […]

Structure (SMILES)	Displacement of spy molecule 19
CC(C)(C)CC(=O)N1C[C@H](O)C[C@H]1C(=O)NCc1ccc(Br)c(C(F)(F)F)c1 [Compound 3]	concentration dependent
CC(=O)N1C[C@H](O)C[C@H]1C(=O)NCc1ccc(Br)cc1C(F)(F)F [Compound 10]	concentration dependent
CC(=O)NC(C(=O)N1CC(O)CC1C(=O)NCc1ccc(Br)cc1C(F)(F)F)C(C)(C)C (stereo not drawn) [Compound 12]	concentration dependent
